From US11447471B2, “α,β-unsaturated amide compound” (KYOWA KIRIN CO., LTD., priority 2017, dated 2022)

system: OVTOKO cells; test: Cell growth inhibitory effect on human ovarian cancer cell line (cell counting kit 8, 6 days); type: cell-based; settings: 144 h, 6 days incubation
From the text: NCI-H226 cells, a human mesothelioma cell line (ATCC, CRL-5826), NCI-H322 cells, a human lung cancer cell line (the European Collection of Authenticated Cell Cultures, 95111734), OUTOKO cells, a human ovarian cancer cell line (JCRB cell bank, KRB1048) and […] were each subcultured by keeping the cell density under 80% in a RPMI1640 culture medium with 10% fetal bovine serum (FBS). NCI-H226 cells, NCI-H322 cells and SSP-25 cells were each suspended in the RPMI1640 culture medium mentioned above, and plated to a 96-well flat-bottom plate at 500 cells/well in each well, and incubated at 37° C. in an incubator with 5% CO2 for one day. After the incubation, the evaluation of cell growth inhibitory activity was started. OVTOKO cells were suspended in the RPMI1640 culture medium mentioned above, and plated to a 96-well flat-bottom plate at 250 cells/well in each well, and incubated it at 37° C. in an incubator with 5% CO2 for one day. After the incubation, the evaluation of the cell growth inhibitory activity was started. The next day, a test compound was serially diluted to 5 times of its final concentration in the RPM11640 culture medium mentioned above, and the diluted solution was added to each well. In this case, the final concentration of DMSO in each well was adjusted to 0.1%. After the test compound was added, cells were incubated at 37° C. in an incubator with 5% CO2 for 6 days. At the addition of the test compound and 6 days after the addition, the cell counting measurement was performed using a cell counting kit 8 (made by DOJINDO) according to a protocol equivalent to DOJINDO's recommendation. A reagent contained in the kit was added to each plate and color reaction was performed for 2 or 3 hours at 37° C. in an incubator with 5% CO2. After the reaction, an absorbance at wavelength of 450 nm was measured using a microplate reader. A growth inhibition rate was calculated according to the following formula, from which the concentration of a test compound at which cell growth was inhibited by 50% (GI50 value) was determined.

GI50, ≤ 3 µM:
C=CC(=O)NC1COc2c(Oc3ccc(C(F)(F)F)cc3)cccc2C1=O (racemic) [Compound 40, N-[4-Oxo-8-{4-(trifluoromethyl)phenoxy}chroman-3-yl]acrylamide]
C=CC(=O)N[C@@H]1c2ccc(Oc3ccc(C(F)(F)F)cc3)cc2OC[C@@H]1F (relative stereo) [Compound 21, cis-N-[3-Fluoro-7-{4-(trifluoromethyl)phenoxy}chroman-4-yl]acrylamide]
C=CC(=O)N[C@@H]1c2ccc(Oc3ccc(C(F)(F)F)cc3)cc2OC[C@H]1F (relative stereo) [Compound 22, trans-N-[3-Fluoro-7-{4-(trifluoromethyl)phenoxy}chroman-4-yl]acrylamide]
C=CC(=O)N[C@@H]1CC[C@H](Oc2ccc(C(F)(F)F)cc2)c2ncc(Cl)cc21 (relative stereo) [Compound 190, N-((5R*,8S*)-3-Chloro-8-(4-(trifluoromethyl)phenoxy)-5,6,7,8-tetrahydroquinolin-5-yl)acrylamide]
C=CC(=O)N[C@H]1CC[C@@H](Oc2ccc(C(F)(F)F)cc2)c2nc(Cl)ccc21 (relative stereo) [Compound 241, cis-N-[2-Chloro-8-{4-(trifluoromethyl)phenoxy}-5,6,7,8-tetrahydroquinolin-5-yl]acrylamide]
C=CC(=O)NC1CCOc2cc(Oc3ccc(C(F)(F)F)cc3)ccc21 (stereo not shown) [Compound 5, N-[7-{4-(trifluoromethyl)phenoxy}chroman-4-yl]acrylamide]
[H]/C=C/C(=O)NC1CCOc2c1ccc(Oc1ccc(Cl)cc1)c2C (stereo not shown) [Compound 27, N-{7-(4-Chlorophenoxy)-8-methylchroman-4-yl}acrylamide]
[H]/C=C/C(=O)NC1CCOc2c1ccc(Oc1ccc(C(F)(F)F)cc1)c2C (stereo not shown) [Compound 28, N-[8-Methyl-7-{4-(trifluoromethyl)phenoxy}chroman-4-yl]acrylamide]
[H]/C=C/C(=O)NC1CCOc2c1ccc(Oc1ccc(Cl)cc1)c2OC (stereo not shown) [Compound 32, N-{7-(4-Chlorophenoxy)-8-methoxychroman-4-yl}acrylamide]
C=CC(=O)NC1COc2cccc(Oc3ccc(C(F)(F)F)cc3)c2C1 (stereo not shown) [Compound 35, N-[5-{4-(Trifluoromethyl)phenoxy}chroman-3-yl]acrylamide]
C=CC(=O)NC1COc2cc(Oc3ccc(Cl)cc3)ccc2C1 (stereo not shown) [Compound 37, N-{7-(4-Chlorophenoxy)chroman-3-yl}acrylamide]
C=CC(=O)NC1COc2c(Oc3ccc(Cl)cc3)ccc(C)c2C1 (stereo not shown) [Compound 41, N-{8-(4-Chlorophenoxy)-5-methylchroman-3-yl}acrylamide]
C=CC(=O)NC1COc2c(cccc2Oc2ccc(Cl)cc2)C1 (stereo not shown) [Compound 59, N-{8-(4-chlorophenoxy)chroman-3-yl}acrylamide]
C=CC(=O)NC1COc2c(cccc2Oc2ccc(C(F)(F)F)cc2)C1 (stereo not shown) [Compound 61, N-[8-{4-(Trifluoromethyl)phenoxy}chroman-3-yl]acrylamide]
C=CC(=O)Nc1cncc(Oc2cccc(C(F)(F)F)c2)c1 [Compound 95, N-[5-{3-(Trifluoromethyl)phenoxy}pyridin-3-yl)acrylamide]
C=CC(=O)Nc1cncc(Oc2ccc(C(F)(F)F)cc2)c1 [Compound 96, N-[5-{4-(Trifluoromethyl)phenoxy}pyridin-3-yl]acrylamide]
C=CC(=O)Nc1cncc(Oc2ccc(OC(F)(F)F)cc2)c1 [Compound 100, N-[5-{4-(Trifluoromethoxy)phenoxy}pyridin-3-yl]acrylamide]
C=CC(=O)Nc1cncc(Oc2ccc(Cl)c(Cl)c2)c1 [Compound 105, N-{5-(3,4-Dichlorophenoxy)pyridin-3-yl}acrylamide]
C=CC(=O)Nc1cncc(Oc2ccc(C(F)(F)F)c(F)c2)c1 [Compound 106, N-[5-{3-Fluoro-4-(trifluoromethyl)phenoxy}pyridin-3-yl]acrylamide]
